Measured values: patent US8551951B2, “Pharmaceutical preparations and methods for inhibiting tumors” (Aenorasis SA Pharmaceuticals and Medical Devices, priority 2000, dated 2013)
Peptide text beside a SMILES is read from it.

Experiments:
PC-3 cells = experiment: [^3H]-Thymidine uptake assay; assay type: cell-based, human; conditions: GMP grade
Description: The in vitro growth inhibition effect of rHuPSP94 was assessed using [^3H]-Thymidine uptake assay. [^3H]-Thymidine uptake assay involves [^3H]-Thymidine incorporation into cellular DNA of actively proliferating cells. It measures the proliferative index of the cells versus the MTS assay, which quantifies the number of lived cells following treatment. Cells were seeded in Costar 96 well cell culture flat bottom plates in RPMI supplemented media containing 50 μg/ml of bovine serum albumin (BSA) and 0.1 μM FeSO4. PC-3 cells were exposed to various concentrations of rHuPSP94 for 72 hours and during the final 16 hours of incubation cells were pulsed with 1 μCi of [^3H]-Thymidine. The radioactivity in each well of the plate is counted by a beta-counter and is expressed as total counts per minutes (cpm). Results of in vitro effect of rHuPSP94 on PC-3 cells using the ^3[H]-Thymidine uptake assay are summarized in Table 3 and are expressed as percentage of radioactivity measured for treated-cells relative to the radioactivity measured for non-treated cells (for which [^3H]-thymidine uptake value was set at 100%).
[^3H]-Thymidine uptake assay involves [^3H]-Thymidine incorporation into cellular DNA of actively proliferating cells. [^3H]-Thymidine uptake assay measures the proliferative index of the cells versus the MTS assay, which quantifies the number of lived cells following treatment. The anti-proliferative effects of PCK3145 and two other synthetic polypeptides derived from the amino and carboxy terminus ends of PSP94 (SEQ ID NO: 4 and NO: 6, respectively) as well as the decapeptide (SEQ ID NO: 3) previously shown to mimic the biological action of native PSP94 were assessed in [H3]-Thymidine uptake assay on PC-3 cells. Two separate experiments were conducted with GMP-grade PCK3145.

human PC-3 tumor = experiment: Studies PC3-6 and PC3-12, human PC-3 prostate cancer nude mouse xenograft model; assay type: in vivo, nude mice
From the text: Studies PC3-6 and PC3-12 (FIGS. 26-27) are consecutive group experiments designed to characterize the in vivo activity of PCK3145 in the human PC-3 prostate cancer nude mouse xenograft model and to explore relationships between dose, route and schedule of administration and the efficacy parameters of tumor growth (volume).
PC-3 cells harvested in mid-log phase were inoculated at 5×10^6 cells per mice via the subcutaneous route in the mice's back area. Tumors grown from this inoculum were excised at approximately day 32 to 35 post-tumor implantation (p.t.i) when tumor volume reached 200-300 mm^3 (i.e., cu mm). The necrotic tissue was removed and the viable tumor mass cut into small pieces (approximately 1 to 3 mm^3) were implanted SC in the flank region at two opposite sites of the mouse. Treatment with various concentrations of PCK3145 was initiated at day 3 post-tumor implantation (p.t.i) and was continued daily for 21 days. Subcutaneous injections were done below tumor growth sites. Intra-peritoneal injections were performed in the abdominal region. Intra-venous injections were performed via the lateral tail vein. The experiment was terminated 24 hours after the last treatment. Tumor measurements were taken at Days 11, 14, 16, 18, 20, 22 and 24 post-tumor implantation (p.t.i). Tumor volumes were calculated according to formula (a×b^2×0.5), where a—is the length of the long diameter, and b—is the width of the perpendicular small diameter.
Study No: PC3-6 illustrates the efficacy of PCK3145, injected subcutaneously, in tumor growth retardation in Nude mice, which have received PC-3 implants. Mice were separated in different group each receiving various amounts of PCK3145 (SEQ ID NO: 5) or control reagents. The different groups used in these experiments are illustrated in table 6 below. Each group contained 10 mice. Doxorubicin was administered as single bolus intra-venous injection on days 3 and 11 post-tumor implantation (p.t.i).
Study No: PC3-12 illustrates the efficacy of PCK3145 in tumor growth retardation in Nude mice, which have received PC-3 implants. Mice were separated in different group each receiving various amounts of PCK3145 (SEQ ID NO: 5) or control reagents. PCK3145 was injected either through intra-venous or intra-peritoneal route. The different groups used in these experiments are illustrated in table 7 below. Each group contained 9 mice.

Dunning Mat Ly Lu tumors = experiment: Studies MLL-5 and MLL-6, Mat Ly Lu tumor implanted in Copenhagen rats; assay type: in vivo
Description: Anti-tumor efficacy evaluation of PCK3145 against Mat Ly Lu (MLL) tumor implanted in Copenhagen rats was performed. (Protocol based on S. Garde et al.; The Prostate, 22: 225-233, 1993). Mat LyLu tumor cells were harvested in mid-log phase from the culture flasks by trypsinization, were centrifuged at 1200 rotation per minute (rpm) and washed three timed with Hanks balanced salt solution (HBSS). Following washing, cells were counted and adjusted to a concentration of 5×10^6 cells/ml in HBSS. A 0.1 ml volume of tumor cell inoculum containing 5×10^5 cells was administered subcutaneously into the flank region of each rat. Treatment started at day 3 post-tumor implantation (p.t.i) by local subcutaneous injection (i.e., in the shaved back area just below tumor implantation site) of various PCK3145 concentrations. This treatment was continued daily for 16 days. Experiments were terminated 24 hours after the last treatment. Tumor measurements were taken at days 7, 9, 11, 14, 16 and 18. Tumor volumes are calculated according to formula (a×b^2×0.5), where a—is the length of the long diameter, b—width of the perpendicular small diameter. At day 19 tumors of individual rats were excised and weighed.
Study No: MLL-5 illustrates the efficacy of PCK3145 (SEQ ID NO: 5) compared with polypeptide 7-21 (SEQ ID NO: 4) and polypeptide 76-94 (SEQ ID NO: 6) in tumor growth retardation in Copenhagen rats, which have received Mat Ly Lu implants. Mice were separated in different groups, each receiving various amount of PCK3145 (SEQ ID NO: 5) or control reagents. PCK3145 was injected through the subcutaneous route. The different groups used in these experiments are illustrated in table 8 below. Each group contained 8 mice.
Study No: MLL-6 illustrates the efficacy of PCK3145 (SEQ ID NO: 5) in tumor growth retardation in Copenhagen rats, which have received Mat Ly Lu implants. Mice were separated in different group each receiving various amounts of PCK3145 (SEQ ID NO: 5) or control reagents. PCK3145 was injected through the subcutaneous route. The different groups used in these experiments are illustrated in table 9 below. Each group contained 8 mice. Doxorubicin was administered as single bolus via intra-venous injection on day 3 p.t.i.

| Compound | reduction in [^3H]-Thymidine uptake (PC-3 cells; 200 μg/ml, first experiment) | inhibition of [^3H]-Thymidine uptake (PC-3 cells; 400 μg/ml, second experiment) | anti-tumor effect on subcutaneous injection at a site distant from tumor (scruff of the neck) (human PC-3 tumor; 10 μg/kg/day and 100 μg/kg/day) | tumor growth (volume), study PC3-6 (human PC-3 tumor; 10 μg/kg/day s.c. below tumor sites, daily for 21 days, p=0.001 to 0.002 vs PBS) | tumor growth (volume), study PC3-12 (human PC-3 tumor; 100 μg/kg/day intra-venous, days 13, 17 and 20) | tumor growth (volume), study PC3-12 (human PC-3 tumor; 10, 500 and 1000 μg/kg/day intra-venous) | tumor growth (volume), study PC3-12 (human PC-3 tumor; 500 and 1000 μg/kg/day intra-venous) | anti-tumor effect (tumor volume), study MLL-5 (Dunning Mat Ly Lu tumors; 1 μg/kg/day s.c.) | anti-tumor effect (tumor volume), study MLL-5 (Dunning Mat Ly Lu tumors; 10 μg/kg/day s.c., days 11, 13, 16, 18) | tumor volume reduction over control, study MLL-6 (Dunning Mat Ly Lu tumors; 100 μg/kg/day s.c., days 14, 16 and 18) | difference in tumor weight between control and treated group, study MLL-6 (Dunning Mat Ly Lu tumors; 100 μg/kg/day, day 18 p.t.i) | tumor weight, study MLL-6 (Dunning Mat Ly Lu tumors; 100 μg/kg/day, day 18 p.t.i, control 56.6 g) | reduction in tumor mass, study MLL-6 (Dunning Mat Ly Lu tumors; 100 μg/kg/day, day 18 p.t.i, p=0.0003) | anti-tumor effect, study MLL-6 (Dunning Mat Ly Lu tumors; 10 and 100 μg/kg/day s.c.) | anti-tumor effect in the PC-3 nude mouse xenograft model (human PC-3 tumor; mouse, in vivo) | anti-tumor effect (tumor volume), study MLL-5 (Dunning Mat Ly Lu tumors; s.c., days 13, 16, 18, dose not given) |
| --- | --- | --- | --- | --- | --- | --- | --- | --- | --- | --- | --- | --- | --- | --- | --- | --- |
| C[C@@H](O)[C@H](NC(=O)[C@H](CCC(=O)O)NC(=O)[C@H](Cc1ccc(O)cc1)NC(=O)[C@H](CS)NC(=O)[C@@H](NC(=O)[C@H](CS)NC(=O)[C@@H](NC(=O)[C@H](CCC(=O)O)NC(=O)[C@H](CS)NC(=O)[C@H](CC(N)=O)NC(=O)[C@H](CC(=O)O)NC(=O)[C@@H](NC(=O)[C@H](CCC(N)=O)NC(=O)[C@H](Cc1c[nH]c2ccccc12)NC(=O)[C@@H](N)CCC(=O)O)[C@@H](C)O)[C@@H](C)O)[C@@H](C)O)C(=O)O [PCK3145, EWQTDNCETCTCYET] (H-EWQTDNCETCTCYET-OH; N-terminus and C-terminus assumed) | ~40% | 25% | might not be efficacious enough | significant PC-3 tumor growth retardation | significant tumor growth retardation | No significant anti-tumor effect | trend towards significance | No significant effect | significant anti-tumor effect | 31% | 20 gram | 37.2 g | 34% | significant dose-dependent anti-tumor effect |  |  |
| polypeptide 7-21: PSP94 derived synthetic polypeptide from the amino terminus end, SEQ ID NO: 4 (NEGVPGDSTRKCMDL; Polypeptide 7-21) |  |  |  |  |  |  |  |  |  |  |  |  |  |  | also observed in the PC-3 nude mouse xenograft model | comparable anti-tumor effect |
